Results published in patent publication US4395405A, “Alkyl-ketohexopyranoside derivatives and method of use” (Hisamitsu Pharmaceutical Co., Inc., priority 1979, dated 1983).

Key:
IgG and IgM [1] = experiment: Amount of antibodies formed in rats, PHA (phytohemaglutinin) reaction; type: in vivo, rats of wistar strain
Description: (§1) Effects on the formation of homocytotropic antibodies in rats
(§2) An experiment was carried out in accordance with the Tada and Okumura's method (J. Immunol., Vol. 106, p 1002, 1971).
(§3) Groups each consisting of 8-9 rats of wistar strain were used in this experiment.
(§4) As shown in Tables 2-5, to the four legs of the rats were injected 1 mg of dinitrophenylated extract of ascaris suum (DNP-As) as protein and 10^10 cells of vaccinum pertussis (B. Pertussis) for sensitization, after which the compounds of this invention were administered to the injected rats for 5 days. Eight to nine days after the sensitization, bloodletting was effected on these rats to collect their serum for estimating the amount of antibodies formed using passive cutaneous anaphylaxis (PCA) reactions and phytohemaglutinin (PHA) reactions.
(2) Estimation of the amount of antibodies by PHA reaction:
The collected serum was diluted in various concentrations and incubated with sheep red blood cells coupled with DNP-As using bis-diazoated benzydine to determine the dilution of the serum which induced the minimum hemaglutination. […]

IgG and IgM [2] = experiment: Amount of antibodies formed in mice, PHA reaction; type: in vivo, mice (BALB/c strain), female; conditions: Table 11, hypodermic, 100 mg/Kg/day for 5 days; serum 9 days after; control 380.2 (269.2-537.0); 100 mg/kg/day
Description: The collected serum was diluted in various concentrations and incubated with sheep red blood cells coupled with DNP-As using bis-diazoated benzydine to determine the dilution of the serum which induced the minimum hemaglutination.
(§5) Effects on the formation of homocytotropic antibodies in mice
(§6) Groups each consisting of 5 female mice (BALB/c strain) were used in this experiment. The mice were sensitized with 10 μg of DNP-As as protein and 3 mg of Al(OH)3, after which the test compound was administered to the sensitized mice for 5 days (at a dose of 100 mg/Kg/day). After the sensitization, a sample of serum was collected from the mice and treated in the same manner as in Experiment 1 to determine the amount of antibodies formed. […]

[3] = Acute poisoning test on mice; conditions: mouse, in vivo, three weeks
Description: (§7) Each of the test compounds was suspended in a physiological solution of sodium chloride containing 0.5% of tragacanth gum to obtain a test suspension. The test suspensions so obtained were administered to rats and mice in various ways. LD50 was calculated from test animals which died in three weeks after the start of the test.

IgE antibodies [4] = experiment: Formation of homocytotropic antibodies in mice, PCA reaction; type: in vivo, mice (BALB/c strain), female; conditions: 100 mg/Kg/day for 5 days
Description: (§8) The collected serum was diluted in various concentrations and intradermally injected to other rats. Forty-eight (48) hours after the injection, 2 mg of DNP-As as protein and 0.5 ml of a 1% Evans Blue were intravenously injected into these rats to determine the dilution of the serum which induced the minimum extravasted dye. It should be noted that the symbols "*" and "**" in the following Tables indicate significant differences at risks of 5% and 1%, respectively.
as §5, §6

[5] = Acute poisoning test on rats; conditions: rat, in vivo, three weeks
Description: as §7

IgE antibodies [6] = experiment: Formation of homocytotropic antibodies in rats, PCA (passive cutaneous anaphylaxis) reaction; type: in vivo, rats of wistar strain
Description: as §1, §2, §3, §4
(1) Estimation of the amount of antibodies by PCA reaction:
as §8, with “respectively. […]” for “respectively.”

## CCCCCOC1(CO)OCC(O)C(O)C1O [Compound No. 4, n-pentyl-β-D-fructopyranoside]
IgG and IgM [1]; Table 4, oral administration, serum 8 days after the sensitization, control 320 (270-370)
  PHA of rat: dilution of the serum which induced the minimum hemaglutination: 3250
IgG and IgM [1]; Table 5 left half, hypodermic administration, serum 8 days after sensitization, control 1318.3 (933.3-1862.1)
  PHA of rat: dilution of the serum which induced the minimum hemaglutination: 2454.7
IgG and IgM [2]
  PHA of mice (serum dilution): 309.0 (251.2-380.2)
[3]; ip, abdominally, female
  LD50 at 504 h: 2360 mg/kg
[3]; ip, abdominally, male
  LD50 at 504 h: 2590 mg/kg
[3]; iv, intravenously, female
  LD50 at 504 h: 930 mg/kg
[3]; iv, intravenously, male
  LD50 at 504 h: 760 mg/kg
[3]; po, orally, female
  LD50 at 504 h: 3790 mg/kg
[3]; po, orally, male
  LD50 at 504 h: 3800 mg/kg
[3]; sc, hypodermically, female
  LD50 at 504 h: 1080 mg/kg
[3]; sc, hypodermically, male
  LD50 at 504 h: 1020 mg/kg
IgE antibodies [4]; Table 6, oral, serum 10 days after sensitization, control 256 ± 128
  PCA of mice (serum dilution): 88 ± 24
IgE antibodies [4]; Table 6, oral, serum 21 days after sensitization, control 1024 ± 0
  PCA of mice (serum dilution): 328 ± 108
IgE antibodies [4]; Table 6, oral, serum 30 days after sensitization, control 299 ± 43
  PCA of mice (serum dilution): 272 ± 80
IgE antibodies [4]; Table 9, hypodermic, serum 37 days after, control 3467.37 (2013.72-3767.04)
  PCA of mice (serum dilution): 177.83
[5]; ip, abdominally, female
  LD50 at 504 h: > 2780 mg/kg
[5]; ip, abdominally, male
  LD50 at 504 h: > 2780 mg/kg
[5]; iv, intravenously, female
  LD50 at 504 h: 660 mg/kg
[5]; iv, intravenously, male
  LD50 at 504 h: 670 mg/kg
[5]; po, orally, female
  LD50 at 504 h: > 4000 mg/kg
[5]; po, orally, male
  LD50 at 504 h: > 4000 mg/kg
[5]; sc, hypodermically, female
  LD50 at 504 h: 1300 mg/kg
[5]; sc, hypodermically, male
  LD50 at 504 h: 1500 mg/kg
IgE antibodies [6]; Table 2, abdominal and oral administration, 5 days, serum 8 days after sensitization, control 237 (169-337)
  PCA of rat: dilution of the serum which induced the minimum extravasted dye: 52.0
IgE antibodies [6]; Table 2, abdominal and oral administration, 5 days, serum 9 days after sensitization, control 169 (119-223)
  PCA of rat: dilution of the serum which induced the minimum extravasted dye: 51.9
IgE antibodies [6]; Table 3 left half, hypodermic administration, serum 8 days after sensitization, control 144.5 (117.5-177.8)
  PCA of rat: dilution of the serum which induced the minimum extravasted dye: 102.4
